Test results as given in PubChem BioAssay AID192 (DTP/NCI, 2004).
Toxic doses and inconclusive results are not listed.

Tested on: BDF1 mice, B16 melanoma ip, median survival T/C
Test: NCI In Vivo Anticancer Drug Screen. Data for tumor model B16 Melanoma (intraperitoneal) in B6D2F1 (BDF1) mice
Conditions: endpoint: median survival time, higher = longer survival
Outline: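 The ratio T/C compares compound-treated mice with vehicle-treated controls, using survival or tumor size as the endpoint in a transplantable tumor model.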

[1] = dose: 1.25 mg/kg/injection, schedule: Q01DX009 (ip), vehicle: Klucel (hydroxypropylcellulose) (HPC)
[2] = dose: 2.5 mg/kg/injection, schedule: Q01DX009 (ip), vehicle: Klucel (hydroxypropylcellulose) (HPC)
[3] = dose: 5.0 mg/kg/injection, schedule: Q01DX009 (ip), vehicle: Klucel (hydroxypropylcellulose) (HPC)
[4] = dose: 10.0 mg/kg/injection, schedule: Q01DX009 (ip), vehicle: Klucel (hydroxypropylcellulose) (HPC)
[5] = dose: 25.0 mg/kg/injection, schedule: Q01DX009 (ip), vehicle: Klucel (hydroxypropylcellulose) (HPC)

O=C(O)c1[nH]c(=O)[nH]c(=O)c1F
T/C (dose: 2.0 mg/kg/injection, schedule: Q01DX009 (ip), vehicle: saline): 92 % of control
T/C (dose: 4.0 mg/kg/injection, schedule: Q01DX009 (ip), vehicle: saline): 95 % of control

CO[C@H]1C[C@@H]2CC[C@@H](C)[C@@](O)(O2)C(=O)C(=O)N2CCCC[C@H]2C(=O)O[C@H]([C@H](C)C[C@@H]2CC[C@@H](O)[C@H](OC)C2)CC(=O)[C@H](C)C=C(C)[C@@H](O)[C@@H](OC)C(=O)[C@H](C)C[C@H](C)/C=C/C=C/C=C1C
T/C (dose: 190.0 mg/kg/injection, schedule: Q01DX001 (ip), vehicle: saline with Tween-80): 159 % of control
T/C (dose: 200.0 mg/kg/injection, schedule: Q01DX009 (ip), vehicle: saline with Tween-80): 110 % of control
T/C (dose: 380.0 mg/kg/injection, schedule: Q01DX001 (ip), vehicle: saline with Tween-80): 112 % of control
T/C (dose: 400.0 mg/kg/injection, schedule: Q01DX009 (ip), vehicle: saline with Tween-80): 109 % of control
T/C (dose: 760.0 mg/kg/injection, schedule: Q01DX001 (ip), vehicle: saline with Tween-80): 123 % of control

COC(CCC(C)C1OC23CC(OC(=O)CC(C(C)O)OC(=O)CC(O)(O2)C(C)CC3(C)C)C1C)c1cccc(O)c1 (stereo unspecified)
T/C (dose: 12.5 micrograms/kg/injection, schedule: Q01DX009 (ip), vehicle: other): 103 % of control
T/C (dose: 25.0 micrograms/kg/injection, schedule: Q01DX009 (ip), vehicle: other): 101 % of control
T/C (dose: 50.0 micrograms/kg/injection, schedule: Q01DX009 (ip), vehicle: other): 97 % of control
T/C (dose: 100.0 micrograms/kg/injection, schedule: Q01DX009 (ip), vehicle: other): 101 % of control

O=C1C(Cl)=C(N2CC2)C(=O)C(Cl)=C1N1CC1
T/C (dose: 0.62 mg/kg/injection, schedule: Q01DX009 (ip), vehicle: Klucel (hydroxypropylcellulose) (HPC)): 105 % of control
T/C [1]: 105 % of control
T/C [2]: 114 % of control
T/C (dose: 2.5 mg/kg/injection, schedule: Q01DX009 (ip), vehicle: saline): 115 % of control
T/C [3]: 123 % of control
T/C [4]: 124 % of control
T/C (dose: 20.0 mg/kg/injection, schedule: Q01DX009 (ip), vehicle: Klucel (hydroxypropylcellulose) (HPC)): 124 % of control

CNCc1ccccc1C(O)c1ccc(Cl)cc1 (stereo unspecified)
T/C (dose: 6.25 mg/kg/injection, schedule: Q01DX009 (ip), vehicle: Klucel (hydroxypropylcellulose) (HPC)): 102 % of control
T/C (dose: 12.5 mg/kg/injection, schedule: Q01DX009 (ip), vehicle: Klucel (hydroxypropylcellulose) (HPC)): 100 % of control
T/C [5]: 97 % of control
T/C (dose: 50.0 mg/kg/injection, schedule: Q01DX009 (ip), vehicle: Klucel (hydroxypropylcellulose) (HPC)): 102 % of control

CS(=O)(=O)c1nnc(-c2ccccc2)s1
T/C (dose: 100.0 mg/kg/injection, schedule: Q01DX009 (ip), vehicle: carboxymethylcellulose (CMC)): 111 % of control
T/C (dose: 200.0 mg/kg/injection, schedule: Q01DX009 (ip), vehicle: carboxymethylcellulose (CMC)): 102 % of control

C1CCC(=NN=C2CCCCC2)CC1
T/C (dose: 50.0 mg/kg/injection, schedule: Q04DX003 (sc), vehicle: olive oil, sesame oil, peanut oil): 111 % of control
T/C (dose: 100.0 mg/kg/injection, schedule: Q04DX003 (sc), vehicle: olive oil, sesame oil, peanut oil): 95 % of control
T/C (dose: 200.0 mg/kg/injection, schedule: Q04DX003 (sc), vehicle: olive oil, sesame oil, peanut oil): 102 % of control

CN(C)C(=O)c1cccc(NC(=O)NCc2cccc(N3C(N)=NC(N)=NC3(C)C)c2)c1
T/C (dose: 12.5 mg/kg/injection, schedule: Q01DX009 (ip), vehicle: saline): 107 % of control
T/C (dose: 25.0 mg/kg/injection, schedule: Q01DX009 (ip), vehicle: saline): 117 % of control
T/C (dose: 50.0 mg/kg/injection, schedule: Q01DX009 (ip), vehicle: saline): 102 % of control

CCOC(=O)/C(=C\c1ccccc1)P(=O)(OCC)c1ccccc1 (stereo unspecified)
T/C (dose: 25.0 mg/kg/injection, schedule: Q04DX003 (ip), vehicle: Klucel (hydroxypropylcellulose) (HPC)): 93 % of control
T/C (dose: 50.0 mg/kg/injection, schedule: Q04DX003 (ip), vehicle: Klucel (hydroxypropylcellulose) (HPC)): 95 % of control
T/C (dose: 100.0 mg/kg/injection, schedule: Q04DX003 (ip), vehicle: Klucel (hydroxypropylcellulose) (HPC)): 94 % of control

NC(=O)c1nn(C2OC(CO)C(O)C2O)c2ncnc(N)c12 (stereo unspecified)
T/C [1]: 96 % of control
T/C [2]: 104 % of control
T/C [3]: 107 % of control
T/C [4]: 118 % of control
T/C [5]: 103 % of control

O=C(CC(CC(=O)c1ccccc1)c1ccco1)c1ccccc1
T/C (dose: 100.0 mg/kg/injection, schedule: Q01DX009 (ip), vehicle: Klucel (hydroxypropylcellulose) (HPC)): 93 % of control
T/C (dose: 200.0 mg/kg/injection, schedule: Q01DX009 (ip), vehicle: Klucel (hydroxypropylcellulose) (HPC)): 93 % of control
T/C (dose: 400.0 mg/kg/injection, schedule: Q01DX009 (ip), vehicle: Klucel (hydroxypropylcellulose) (HPC)): 93 % of control
